Measurements reported in US6794148B2, “High speed, automated, continuous flow, multi-dimensional molecular selection and analysis” (PerSeptive Biosystems, Inc., priority 1995, dated 2004).
No end group written: not given here.

Legend:
IgG [1] = experiment: IgG purification from human serum on POROS-immobilized peptide column; format: binding; settings: for IgG binding capacity of POROS-peptide column: peptide immobilized on POROS AL via N-terminal end
Method: 1 g POROS™ AL (aldehyde) was suspended in 10 mM PBS (pH 7.5) containing 100 mg sodium cyanoborohydride (NaCNBH3). 5 to 20 mg of each of the peptides selected by various screening procedures was added to the resin and the mixture was shaken overnight at room temperature. 100 mg sodium borohydride (NaBH4) was then added and the mixture was shaken for another 2 hrs. The beads were then washed with PBS and packed into 4.6 mm D×100 mm L column using POROS™ Self Pack® device.
100 μl of 1:10 diluted serum was injected onto the peptide column which was equilibrated with 20 mM tris (pH 8.0) at 5 ml/min. The bound proteins were eluted with 0-1 M NaCl gradient in 15 CVs. Fractions were collected manually and concentrated by Speed Vac for subsequent analysis by SDS-polyacrylamide gel electrophoresis.
The […] (SEQ ID NO: 8) peptide with heme group was immobilized on POROS™AL® (aldehyde) via the N-terminal end. This POROS™-peptide conjugate was used to separate IgG from serum at pH 8 under a 0-1 M NaCl gradient. […] To determine the nature of interaction, the purification profile of IgG separated on the POROS™-peptide column was compared with the IgG purified on standard ion exchange columns such as POROS™-CM and POROS™ HQ. […] The effect of the varying loading densities of peptide (from 10 mg/g POROS™ to 100 mg/g POROS™) on specificity and capacity for IgG binding was also investigated. The specificity of the peptide for IgG binding was also investigated. […] At low loading density (10 mg/g POROS™) IgG bound primarily via ionic interaction requiring elution of bound IgG with salt gradient. At higher loading density ([…]) IgG bound strongly and eluted with acid buffer. The binding capacity varied from 1-2 mg/ml column volume at lower ligand density to 30 mg/ml column volume at higher ligand densities.
A simplified analog of the heme peptide ([…]) (SEQ ID NO: 9) was synthesized and immobilized on POROS™ AL via the N-terminal end. […] The bound IgG was eluted from the GAQGHTVBK (SEQ ID NO: 9)-POROS™ column with 100 mM NaCl. The IgG binding capacity was determined to be 5 mg/ml column volume. Loading densities from 20 mg/g to 40 mg peptide /g POROS™ were evaluated. At these ligand densities, the specificity of IgG binding was not affected, but the capacity was reduced.

HSA = molecular target: T1, HSA (Homo sapiens, UniProt P02768); experiment: HSA binding to heme peptide POROS; settings: only under very hydrophobic conditions (200 mM sodium sulphate, pH 7 buffer)
T1 construct: purchased Sigma Chemical Co (St. Louis, Mo.)

[2] = test system: mouse IgG (whole fragment); experiment: Solution phase and solid phase peptide screening of natural peptide library; format: binding
Method: (§1) 5 mg each of either mouse IgG (whole) or the Fc fragment was incubated with 20 mg of natural library and protein A and G digests, respectively. The mixture was dissolved in 1 ml of a mixture of 25 mM sodium phosphate buffer and 0.15 M NaCl (pH 7) overnight at 4° C. After incubation, several chromatographic runs through the Superdex SEC and RP columns were conducted with 200 of the protein and peptide mixture injected through the Superdex column during each run. The flow rate for the Superdex column was 0.75 m/min with the 25 mM sodium phosphate buffer and 0.15 M NaCl (pH 7) mixture. The early eluting protein peak was collected directly onto the RP column. The remaining portion of the peak was washed off the SEC. The mouse IgG (whole) or Fc fragment and its associated peptides were then eluted from the RP column under the following conditions:
(§2) The IgG activated POROS™ was packed into 4.6 mm D×100 mm L PEEK columns using Self Pack® assembly on BioCAD™ at 20 ml/min flow rate. 5 to 50 mgs peptide library (natural peptide library or polyclonal antibody digest) dissolved in 0.5 to 2.5 ml of 10 mM PBS (pH 7.5) was injected onto the column at flow rate of 0.5 ml/min. After wash with 5 CVs of PBS, the bound portion was eluted with 10 mM HCl and collected manually. […] The fractions corresponding to the bound peptides were concentrated in Speed Vac and analyzed by MALDI-TOF and Edman sequencing. […]

IgG [3] = experiment: IgG purification from human serum on POROS-immobilized peptide column; format: binding; settings: immobilized via carboxyl groups of heme and free C-terminal end
IgG [4] = experiment: Solid phase screening of polyclonal antibody digests on immobilized IgG column; format: binding; settings: tryptic digests of anti-IgG (Fc specific) polyclonal antibodies
Method: […] POROS™ EP (epoxy) was suspended in 5 ml 0.1 M phosphate buffer (pH 9) containing 20 mg IgG. After the beads were well suspended, 4 ml 0.1 M phosphate buffer (pH 9) containing 2 M NA2SO4 were added to the mixture and it was shaken overnight at room temperature. The beads were then washed with 10 mM PBS (pH 7.5) and stored in the refrigerator before they were packed into columns.
as §2, with “manually. The fraction was concentrated down to approximately 500 μl and at least 80% of it was injected onto a 4.6 mm D×250 mm L Vydac C18 column at 1 m/min. The RP column was equilibrated with 0.1% TFA/DIW and peptides were eluted with 15 CVs of a 0-40% acetonitrile gradient at flow rate of 1 ml/min.” for “manually.”
Polyclonal antibodies are an interesting and logical source of peptides since they have specific antigen binding sites. […] The amino acid sequence was determined to be […] […]

mouse IgG, Fc fragment = experiment: Binding of mouse IgG Fc fragment on POROS 19-mer peptide column; settings: peptide synthesized directly on POROS NH2 resin via C-terminal end; eluted with acid buffer
Method: (§3) The 19-mer peptide ([…]) (SEQ ID NO: 7) selected from protein A and G digests was directly synthesized on 20 μm amine-functionalized™ particles by standard FMOC chemistry. About 700 mg of resin was dry packed into a 4.6 mm D×50 mm L PEEK column equipped with 2 μm frits. The packed column was attached with appropriate adapters to a PerSeptive Biosystems 9050 plus continuous flow peptide synthesizer. Upon completion of synthesis, the resin was dried and deprotected using 95% TFA/5% triisopropylsilane for 24 hrs. The final peptide-support conjugate was packed using POROS™ Self Pack® column packing device at flow rate 10 ml/min onto 4.6 mm D×50 mm L column for evaluation as affinity supports.
(§4) The 19-mer peptide column (4.6 mm D×50 mm L) was equilibrated with 20 CVs of equilibration buffer, 20 mM tris (pH 7). About 500 μl of 1 mg/ml of each of the following samples was injected onto the 19-mer peptide column (4.6 mm D×50 mm L): 1) pure IgGs from either human or mouse or chicken, 2) IgA (whole molecule), 3) human serum, 4) fetal bovine serum (1:10 dilution), or 5) 500 μl of 1 mg/ml mouse […]. After injection, the column was washed with 20 CVs of a mixture of 20 mM tris buffer and 0.4 M NaCl (pH 7). The remaining bound proteins were eluted with 20 CVs of 12 mM HCl. […] The bound fractions were collected and analyzed by SDS-Polyacrylamide gel electrophoresis.

IgG [5] = experiment: Immunoglobulin class and species selectivity of POROS 19-mer peptide column; format: binding
Method: as §3, §4

mouse IgG (Fc fragment) = experiment: Solution phase peptide screening (SEC - reversed phase) of protein A and G digests; format: binding; settings: native and denatured recombinant protein A and G digests
Method: as §1
Fractions corresponding to bound peptide peaks were lyophilized and redissolved in 1001 of 0.1% TFA/DIW for mass spec analysis by MALDI-TOF.

Sequence | selectivity for IgG from serum versus ion exchange columns (IgG [1]; compared with POROS-CM and POROS HQ, similar conditions) | IgG binding capacity at higher ligand densities (IgG [1]; higher loading density (100 mg/mg)) [mg/ml column volume] | IgG binding capacity at lower ligand density (IgG [1]; low loading density (10 mg/g POROS)) | purity of IgG purified from serum (IgG [1]; pH 8, 0-1 M NaCl gradient, versus POROS-Protein A) | IgG binding capacity of POROS-peptide column (IgG [1]; pH 8) [mg/ml column volume] | binding to HSA (HSA) | selected as binder in library screening [2] | IgG binding when immobilized via carboxyl groups (IgG [3]) | specificity of IgG binding from human serum (IgG [1]; pH 8, immobilized on POROS via N-terminal end) | selectivity of peptide isolated from denatured antibody digest (IgG [4]) | binding of mouse IgG Fc fragment (capacity and selectivity) (mouse IgG, Fc fragment) | selectivity IgG versus IgA (IgG [5]; POROS 19-mer peptide column) | species selectivity of IgG binding (IgG [5]; human versus rabbit, goat or mouse IgG) | selected as binder in solution phase screening (mouse IgG (Fc fragment))
CAQCHTVEK (cysteine pairing not given here; also: heme group) [tryptic digest peptide of cytochrome c with heme group, immobilized on POROS AL] | higher selectivity for IgG from serum than either of the ion exchange columns | 30 | 1-2 mg/ml column volume | comparable purity to that of IgG separated on POROS™-Protein A column | 10 | bound very weakly | yielded one peptide | no IgG binding |  |  |  |  |  | 
GAQGHTVEK (OTHER INFORMATION: Description of Artificial Sequence: synthetic peptide) [simplified analog of the heme peptide; also isolated from polyclonal antibody digests] |  |  |  |  | 5 |  |  |  | bound specifically | selective for IgG |  |  |  | 
TVTEKPEVIDASELTPAVT (also: synthesized on POROS) [19-mer peptide selected from protein A and G digests, synthesized on POROS] |  |  |  |  |  |  |  |  |  |  | low capacity but high selectivity | more selective for IgG than IgA | Human IgG bound more selectively | identified
